# Data from US20120065126A1, “Pharmaceutical Compositions Containing Antifungal Peptides” (BASF SE, priority 2009, published 2012).
# How the values were obtained:
# [1] = test system: M. furfur; test: Effect of P18 variants (CFU); format: cell-based, Malassezia furfur; conditions: 50 μM peptide, with DMSO; 24 h
# Procedure: The studies described hereinafter were conducted on the Malassezia furfur strain DSM 6170.
# The inhibitory effect of the following P18 variants on M. furfur was studied:
# The growth test was effected as follows: a shake culture containing M472 Pityrosporum medium was inoculated with M. furfur and incubated with shaking at 30° C. and 200 rpm overnight.
# A 96-well microtiter plate was filled with 100 μl per well of M472 Pityrosporum medium and inoculated with M. furfur suspension from the overnight culture. The M. furfur suspension was adjusted at the start of the experiment to an optical density, measured at 600 nm, of 0.1.
# The peptide variants were dissolved with a final concentration of 1 mM in dimethyl sulfoxide (DMSO). It is also possible to dispense with DMSO and to use a purely aqueous peptide solution. 5 μl of this solution were added to 100 μl of M. furfur suspension (final concentration of the P18 peptide 50 μM). In a control mixture, the same amount of DMSO without P18 peptide was added.
# The microtiter plate was incubated with shaking at 30°.
# After 24 h, the colony forming units (CFU) were determined by streaking 10 μl of each of the suspensions and, after incubation over the course of 6 days, counting the colonies. Two independent experiments each with three identical mixtures were conducted, and the number of colony forming units was averaged.
# [2] = test system: M. furfur DSM 6170; test: Comparison of the efficacy of P18 and AFPP (CFU); format: cell-based, Malassezia furfur
# Excerpt: WO 00/32220 describes the effect of the antifungal polypeptide AFPP from Aspergillus giganteus on the growth of Malassezia furfur.
# In order to compare the effect of P18 (SEQ ID NO. 3; sequence: KWKLFKKIPKFLHLAKKF-NH2 (Bachem. AG, Switzerland)) with the effect of AFPP, AFPP was provided from the culture supernatant of the A. giganteus strain CBS 526.65 (Organobalance, Berlin). The purification was effected according to Theis et al. (Theis T., Wedde M., Meyer V., Stahl U. (2003) The antifungal protein from Aspergillus giganteus causes membrane permeabilization. Antimicrob. Agents Chemother. 47:588-593; Theis T., Marx F., Salvenmoser W., Stahl U., Meyer V. (2005) New insights into the target site and mode of action of the antifungal protein (AFP) of Aspergillus giganteus. Res Microbiol. 156:47-56.)
# After replacing the buffer and concentration, a 2% (w/w) AFPP solution in phosphate buffer (10 mM sodium phosphate, pH 7.5, 100 mM NaCl) was obtained.
# The P18 concentrate was also present as a 2% (w/w) solution in phosphate buffer.
# Growth medium: M472 Pityrosporum medium according to DSMZ (German Collection of Microorganisms and Cell Cultures, Braunschweig, Germany) 40 g of malt extract (Becton, Dickinson and Company, Sparks, USA) 20 g of ox bile (Merck, Darmstadt, Germany)
# The growth test was effected as follows: a shake culture containing M472 Pityrosporum medium was inoculated with M. furfur DSM 6170 (DSMZ) and incubated with shaking at 30° C. and 200 rpm overnight.
# For each test mixture, a 1.5 ml reaction vessel was filled with Pityrosporum medium and inoculated with the M. furfur overnight culture to give a start OD of 0.1, measured at 600 nm.
# The growth of the following test mixtures was monitored: • M. furfur suspension and addition of 30 μl of phosphate buffer (in order to rule out any influence of the phosphate buffer on the effect of the active peptides at a final concentration of 0.1%) • M. furfur suspension and addition of 60 μl of phosphate buffer (in order to rule out any influence of the phosphate buffer on the effect of the active peptides at a final concentration of 0.2%) • M. furfur suspension and addition of 90 μl of phosphate buffer (in order to rule out any influence of the phosphate buffer on the effect of the active peptides at a final concentration of 0.3%) • M. furfur suspension with a final P18 concentration of 0.1% in the reaction volume • M. furfur suspension with a final P18 concentration of 0.2% in the reaction volume • M. furfur suspension with a final P18 concentration of 0.3% in the reaction volume • M. furfur suspension with a final AFPP concentration of 0.1% in the reaction volume • M. furfur suspension with a final AFPP concentration of 0.2% in the reaction volume • M. furfur suspension with a final AFPP concentration of 0.3% in the reaction volume
# The reaction volume was 600 μl in each case. The growth of M. furfur in the test mixtures was observed over a period of 24 hours. For this purpose, the mixtures were diluted 1:10 in M472 medium after 5 minutes, 20 minutes and 24 hours, and then 10 μl were plated out. The CFU (colony forming units) were determined by counting after incubation at 30° C. for 6 days.
# The experiments were effected in double determination and were independently repeated at least once.
substance,measurement,setting,value
"H-KWKLFKKIPKFLHLAKKF-NH2 [P18, H-KWKLFKKIPKFLHLAKKF-NH2]",Averaged number of colony forming units (CFU),[1],0 CFU
same,Colony forming units after the incubation time specified,"[2]; 0.1%, 5 minutes",205 ± 192 CFU
same,Colony forming units after the incubation time specified,"[2]; 0.1%, 20 minutes",48 ± 56 CFU
same,Colony forming units after the incubation time specified,"[2]; 0.1%, 24 hours",0 CFU
same,Colony forming units after the incubation time specified,"[2]; 0.2%, 5 minutes",56 ± 52 CFU
same,Colony forming units after the incubation time specified,"[2]; 0.2%, 20 minutes",5 ± 4 CFU
same,Colony forming units after the incubation time specified,"[2]; 0.2%, 24 hours",0 CFU
same,Colony forming units after the incubation time specified,"[2]; 0.3%, 5 minutes",18 ± 19 CFU
same,Colony forming units after the incubation time specified,"[2]; 0.3%, 20 minutes",1 ± 0 CFU
same,Colony forming units after the incubation time specified,"[2]; 0.3%, 24 hours",0 CFU
